The values that follow come from PMC3462190, “A Peptidic Unconjugated GRP78/BiP Ligand Modulates the Unfolded Protein Response and Induces Prostate Cancer Cell Death” (PLoS ONE, 2012).

For one assay, the system named is BPH-1 cells. The experiment in a line: Clonogenic assay. The assay is classed as cell-based, Human. The note with it: benign prostate cells, 19-mer vector vs control; at least three experiments. On the procedure:
Figure 6 Selectivity of action of the Bag-1 peptide. A Amino acid sequence of the 19mer peptide and its deletion mutants. B GST pull-down assay performed incubating 400 µg of 22Rv.1 cell lysate and 25 µg of GST-fused deletion mutants of the 19mer peptide. After the pull-down experiment, Western blots were carried out with anti-GRP78/BiP and GST antibodies. C. Fluorescence polarization (FP) assays with a 10 nM FITC-labeled 7-mer Bag-1 peptide and dilutions of the GST-fused substrate binding domain of GRP78 in 60 µl of Tris-GSH buffer (50 mM Tris, 10 mM reduced glutathione and 0.1% BSA, pH 8.0). Triplicate samples were measured after 5 h of incubation at room temperature with an Infinite F-200 reader (Tecan) with excitation at 490 nm and emission at 535 nm. Binding constants were determined from three independent experiments using non-linear regression in Sigma Plot 10.0. D. Competition assays with a complex of 10 nM of FITC-labeled Bag-1 7-mer peptide and 0.75 mg/ml GST-fused GRP78 substrate binding domain was measured against a dilution series from 100 µM to 0.1 nM of wild-type Bag-1 7-mer peptide (filled line) or triple mutant peptide (dotted line) in 40 µl of Tris-GSH buffer. […] Fluorescence polarization was determined as described above and IC50 values were determined in Sigma Plot. […] The colonies were stained and quantified. […]

A further assay relates to DU145 cells. Nature of the assay: Clonogenic assay. The assay is classed as cell-based. The following applies: 19-mer expressing vector vs vector control; at least three experiments. On the procedure:
(§1) Figure 6 Selectivity of action of the Bag-1 peptide. A Amino acid sequence of the 19mer peptide and its deletion mutants. B GST pull-down assay performed incubating 400 µg of 22Rv.1 cell lysate and 25 µg of GST-fused deletion mutants of the 19mer peptide. After the pull-down experiment, Western blots were carried out with anti-GRP78/BiP and GST antibodies. C. Fluorescence polarization (FP) assays with a 10 nM FITC-labeled 7-mer Bag-1 peptide and dilutions of the GST-fused substrate binding domain of GRP78 in 60 µl of Tris-GSH buffer (50 mM Tris, 10 mM reduced glutathione and 0.1% BSA, pH 8.0). Triplicate samples were measured after 5 h of incubation at room temperature with an Infinite F-200 reader (Tecan) with excitation at 490 nm and emission at 535 nm. Binding constants were determined from three independent experiments using non-linear regression in Sigma Plot 10.0. D. Competition assays with a complex of 10 nM of FITC-labeled Bag-1 7-mer peptide and 0.75 mg/ml GST-fused GRP78 substrate binding domain was measured against a dilution series from 100 µM to 0.1 nM of wild-type Bag-1 7-mer peptide (filled line) or triple mutant peptide (dotted line) in 40 µl of Tris-GSH buffer. FITC-peptide and the FITC-peptide-protein complex were used as controls. Fluorescence polarization was determined as described above and IC50 values were determined in Sigma Plot. E. Clonogenic assay in 22Rv.1 cells with pcDNA3 based vectors coding for the N-terminal Bag-1 peptide (positive control), the 19mer and the 19mer mutant fragments as well as the empty expression vector (negative control). Cells were transfected with the indicated constructs and selected in medium containing neomycin. The colonies were stained and quantified. Shown as bar chats are the mean ± SEM of at least three independent experiments with three different plasmid preparations. (*p<0.05). F. In vivo luciferase refolding assay was performed in HEK-293 cells transfected at 70% confluency with 2 µg β-actin-fire fly luciferase construct, 3 µg pcDNA3 empty vector as control or pCMV6-GRP78, 6 µg pcDNA3.1-HA-19-mer or 19-mer mutant peptide and 0.5 µg Renilla luciferase construct to determine the transfection efficiency. Shown as bar charts is the mean of at least three different experiments ± SEM (*p<0.05). G. Clonogenic assay with the indicated malignant (LNCaP, DU145, PC3) and benign (BPH1, PNT2, RWPE1) prostate cell lines transfected with the vector control (black bars) and a vector expressing the 19-mer peptide (white bars). Shown are the mean ± SD of at least three different experiments performed with three different plasmid preparations (*p<0.05). H. Western blot analysis of cell lysates derived from the prostate cancer cells used for the colony forming assay with specific antibodies against GRP78 and β-actin.

The next assay deals with PC3 cells. Nature of the assay: Clonogenic assay. The assay is classed as cell-based. The note with it: 19-mer expressing vector vs vector control; at least three experiments. As to the method: as §1
For the next assay, the system named is PNT-2 cells. The experiment in a line: Clonogenic assay. It is filed as cell-based. The note with it: benign prostate cells, 19-mer vector vs control; at least three experiments. As to the method: as §1
A further assay deals with RWPE-1 cells. The experiment in a line: Clonogenic assay. The assay is classed as cell-based. The following applies: benign prostate cells, 19-mer vector vs control; at least three experiments. As to the method:
as §1

Another assay deals with LNCaP cells. Nature of the assay: Clonogenic assay. The note with it: 19-mer expressing vector vs vector control; at least three experiments. It is filed as cell-based. On the procedure:
as §1

A further assay has as its system 22Rv.1 cells. Nature of the assay: CellTiter-Blue proliferation/viability assay. It is filed as cell-based. The note with it: 22Rv.1 clones P25, P29 and P42 vs vector clones V18, V19 and V33; no ER stress; 2 days; at least four independent experiments, p<0.05. On the procedure: CellTiter-Blue® cell viability assay kit (Promega) was used for the determination of cell viability. Briefly 22Rv.1 cells stably overexpressing the Bag-1 peptide were seeded into two 96 well plate (4500 cells/well) and the measurements were performed in triplicate. One plate was analyzed at day 0 and the other plate, 2 days later. Three hours after seeding, 20 µl of dye were added to each well containing 100 µl of culture medium and incubated for 4 h at 37°C. Fluorescence was measured by the plate-reading fluorometer FluoStar Optima (2001, BMG Labtechnology, software version 1.10–0) and presented as the ratio of the value at the excitation wavelength (560 nm) over the emission wavelenght (590 nm). Cell proliferation was determined from the difference between the fluorescence intensity at the final time point and the value obtained at the day of seeding of the cells (day 0).
Figure 4 The Bag-1 peptide inhibits prostate cancer cell growth in vivo. A. Stable clones of 22Rv.1 cells show reduced cell viability in vitro. […] Tumor size was measured once per week using a caliper and expressed as tumor volume in mm^3. […] Nuclei are stained blue-purple with hematoxylin while apoptotic cells detected with the TUNEL assay are stained brown. […]
(Alamar Blue is a resazurin reagent that responds to reducing activity.)

The test system of a further assay is GADD45. The experiment in a line: Interaction with GADD45 (results not shown). It is filed as binding.

Where no end group is shown, it is not given here.

On to “19-mer: Bag-1L 202–220 (TPLSALGIQDGCRVMLIGK; not fully specified)”, for which the “BPH-1 growth in clonogenic assay” value with BPH-1 cells was “not growth inhibited”. In addition, in the assay on DU145 cells, the “DU145 growth in clonogenic assay” value is listed as “inhibited growth”. Besides, the “PC3 growth in clonogenic assay” value with PC3 cells was “inhibited growth”. Moreover, the “PNT-2 growth in clonogenic assay” value in the assay on PNT-2 cells is recorded as “not growth inhibited”. Also, the “RWPE-1 growth in clonogenic assay” value in the assay with RWPE-1 cells is “not growth inhibited”. Besides, the “LNCaP growth in clonogenic assay” value in the assay on LNCaP cells was “inhibited growth”.

B1: Bag-1 peptide: internal sequence of 68 amino acids of Bag-1 (Bag1-L 202–269), HA-tagged, expressed from pcDNA3 (peptide)
chain: TPLSALGIQDGCRVMLIGKKNSPQEEVELKKLKHLEKSVEKIADQLEELNKELTGIQQGFLPKDLQAE
modifications: also: HA tag, end not given here
With B1, the proliferation result in the assay on 22Rv.1 cells is given as “significantly reduced proliferation”. The “interaction with GADD45” value in the assay on GADD45 is “interact with GADD45”.
